# Results: US10920265B2, “Compounds and methods for detection of enzymes that remove methyl succinyl groups from epsilon-amino lysine moieties” (Enzo Life Sciences, Inc., priority 2011, dated 2021)
# Tests used:
# Assay type in all cases: biochemical
# HDAC2 = target: T1, HDAC2 (Homo sapiens, UniProt Q92769); test: HDAC activity with fluorogenic lysyl substrates; settings: 50 μM substrate
# T1 construct: purchased ENZO Life Sciences BML-SE500
# Description: The Ac-Lys(Succ.)-AMC substrate was tested for activity with recombinant preparations of human HDACs 1-11, SIRTs 1-4, 6 and 7, a complex of HDAC3 with a fragment of the activating protein NCOR1 and with HeLa nuclear extract, a rich source of active HDACs in their native multiprotein complexes.
# Enzyme and extract catalog products obtained from ENZO Life Sciences included: HDAC1 (Cat. # BML-SE456), HDAC2 (Cat. # BML-SE500), HDAC3 (Cat. # BML-SE507), HDAC3/NCOR1 Complex (Cat. # BML-SE515), HDAC6 (Cat. # BML-SE508), HDAC8 (Cat. # BML-SE145), HDAC10 (Cat. # BML-SE559), HDAC11 (Cat. # BML-SE560), SIRT1 (Cat. # BML-SE239), SIRT2 (Cat. # BML-SE251), SIRT3 (Cat. # BML-SE270), SIRT5 (Cat. # BML-SE555), HeLa Nuclear Extract (Cat. # BML-KI140), Trypsin (“Fluor de Lys Developer”, 80 mg/ml bovine trypsin in 1 mM HCl, Cat. # BML-KI105 or “Fluor de Lys Developer II”, 80 mg/ml bovine trypsin in 1 mM HCl, Cat. # BML-KI176). […] Enzymes obtained from BPS Bioscience, San Diego, Calif. included: human recombinants SIRT4 (Cat. #50015), SIRT6 (Cat. #50017), SIRT7 (Cat. #50018). HeLa whole cell extract was obtained from HeLa S3 cells (American Type Culture Collection) grown in a medium of MEM/10% fetal bovine serum (FBS) as follows: 1) 9×10^6 cells were suspended by trypsinization, followed by a phosphate buffered saline (PBS) rinse and addition of MEM/10% FBS (1.5 mL) to eliminate trypsin before transfer to a 15 mL conical tube; 2) cells were sedimented by a low speed centrifugation, gently resuspended in PBS and sedimented again and supernatant removed; 3) lysis was induced by resuspension in 0.8 mL 50 mM Tris/HCl, pH 8.0 with the non-denaturing detergent NP-40 (0.5%), placement on ice and brief vortexing every 5 min. for 30 min.; 4) 100 μl of a concentrated salt solution in the same buffer was added in order to bring the final buffer composition to 50 mM Tris/C1, pH 8.0, 137 mM NaCl, 2.7 mM KCl, 1 mM MgCl2, 0.5% NP-40; 5) particulate matter was cleared by centrifugation and the cleared lysate supernatant transferred to a 1.5 mL Eppendorf tube and stored on ice until use in activity assays.
# (§1) Assays were performed at 37° C., according to the manufacturer's instructions for the “SIRT1 Fluorometric Drug Discovery Kit” from Enzo Life Sciences (ELS) (Cat. # BML-AK555), with exceptions described as follows. Where indicated in figures and text, SIRT1 enzyme was replaced with another enzyme or extract and the “Fluor de Lys-SIRT1 Substrate” (Ac-Arg-His-Lys-Lys(Ac)-AMC; ELS Cat. # BML-KI-177) was replaced with another acetylated, succinylated or trifluoroacetylated substrate.
# SIRT5 [1] = target: T2, SIRT5 (Homo sapiens, UniProt Q9NXA8); test: SIRT5 desuccinylation/deacetylation of fluorogenic lysyl substrates, trypsin developer; set-up: purchased Enzo Life Sciences BML-SE555
# T2 sequence (Q9NXA8 37-310): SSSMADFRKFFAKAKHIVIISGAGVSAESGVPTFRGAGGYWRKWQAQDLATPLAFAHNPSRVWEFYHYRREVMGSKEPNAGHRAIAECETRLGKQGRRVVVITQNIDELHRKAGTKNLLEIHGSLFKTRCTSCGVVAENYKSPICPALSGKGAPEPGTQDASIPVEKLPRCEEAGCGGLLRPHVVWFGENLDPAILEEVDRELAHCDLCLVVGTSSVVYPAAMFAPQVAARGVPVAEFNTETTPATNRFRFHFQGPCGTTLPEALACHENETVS
# Description: FIG. 3 is graphs showing that SIRT5 catalyzes NAD^+-dependent desuccinylation of Ac-Lys(ε-succinyl)-AMC far more efficiently than NAD^+-dependent deacetylation of Ac-Arg-His-Lys-Lys(ε-acetyl)-AMC. Fifty μl reactions in Assay Buffer (50 mM Tris/HCl, pH 8.0, 137 mM NaCl, 2.7 mM KCl, 1 mM MgCl2, 1 mg/ml BSA) included 50 μM of either Ac-Lys(ε-succinyl)-AMC or Ac-Arg-His-Lys-Lys(ε-acetyl)-AMC, and, where indicated, 500 μM NAD^+ and 5 μg recombinant human SIRT5 (Enzo Life Sciences Cat. # BML-SE555). […] AMC fluorescence was read in a Cytofluor II plate-reading fluorimeter (Perseptive Biosystems) at wavelengths 360 nm (excitation)/460 nm (emission), Gain 54. Data represent the mean of two (No Enzyme) or three (+SIRT5) determinations and error bars the standard deviations. Panels A and B present the same data, but with the +SIRT5/+NAD^+/Ac-Lys(ε-succinyl)-AMC bar omitted from B to show the detail on the remaining bars. Statistically significant differences (Student's t-test) are indicated by asterisks as follows: *: p<0.02 vs. corresponding No Enzyme control; **: p<0.001 vs. corresponding −NAD^+ control; ***: p<3×10^−6 vs. both No Enzyme and −NAD^+ controls.
# FIG. 4 is a graph showing that Ac-Lys(Succ.)-AMC enables SIRT5 assay at low enzyme concentrations. Fifty μl reactions in Assay Buffer (50 mM Tris/HCl, pH 8.0, 137 mM NaCl, 2.7 mM KCl, 1 mM MgCl2, 1 mg/ml BSA) included 2 or 10 μM Ac-Lys(ε-succinyl)-AMC, 500 μM NAD^+ and, where indicated, 5 ng recombinant human SIRT5 (Enzo Life Sciences Cat. # BML-SE555). […] AMC fluorescence was read in a Synergy 2 plate-reading fluorimeter (BioTek) at wavelengths 360 nm (excitation)/460 nm (emission), Gain 40. Data represent the mean of two (No Enzyme) or three (5 ng SIRT5) determinations and error bars the standard deviations. Statistically significant differences (Student's t-test) are indicated by asterisks as follows: *: p=0.002; **: p=0.009, each with respect to the corresponding “No SIRT5” samples.
# FIG. 5 is graphs showing dependence of SIRT5 initial rate kinetics on the concentrations of Ac-Lys(Succ.)-AMC and Ac-Lys(Ac.)-AMC. Fifty μl desuccinylation or deacetylation reactions were performed as described earlier (FIG. 4), with the indicated concentrations of Ac-Lys(Succ.)-AMC or Ac-Lys(Ac.)-AMC and 1 mM NAD^+, for 20 min. at 37° C. Reactions with Ac-Lys(Succ.)-AMC contained 10 ng SIRT5 and those with Ac-Lys(Ac.)-AMC contained 5 SIRT5. Reactions were stopped and AMC cleaved from deacetylated or desuccinylated substrate by trypsin treatment as described earlier (FIG. 4). AMC fluorescence was read in a Synergy 2 plate-reading fluorimeter (BioTek) at wavelengths 360 nm (excitation)/460 nm (emission), Gain 40. Data represent the mean of the differences of three determinations with enzyme (10 ng or 5 SIRT5) from the mean of two no enzyme samples for each substrate concentration. Error bars are the standard deviations from those means. Fluorescence differences were converted to specific activities (pmol/min/μg) by measuring the fluorescence increase due to the addition a standard solution of AMC (5 μl of a […]).
# FIG. 6 is a graph showing the dependence of SIRT5 initial rate kinetics of Ac-Lys(Succ.)-AMC desuccinylation on the concentration of NAD^+. Reaction conditions were as described for FIG. 5 but with a constant Ac-Lys(Succ.)-AMC concentration of 0.5 mM and the indicated concentrations of NAD^+. Data analysis and determination of kinetic parameters were as described (FIG. 5).
# FIG. 12 is graphs showing that SIRT5 catalyzes NAD^+-dependent desuccinylation of (Ac-Lys(Succ.))2-R110 far more efficiently than NAD^+-dependent deacetylation of (Ac-Lys(Ac.))2-R110. Fifty μl reactions in Assay Buffer (50 mM Tris/HCl, pH 8.0, 137 mM NaCl, 2.7 mM KCl, 1 mM MgCl2, 1 mg/ml BSA) included 50 μM of either (Ac-Lys(Succ.))2-R110 or (Ac-Lys(Ac.))2-R110, and, where indicated, 500 μM NAD^+ and 5 μg recombinant human SIRT5 (Enzo Life Sciences Cat. # BML-SE555). […]
# [2] = target: T3, bovine pancreatic trypsin (Bos taurus, UniProt P00760); test: Trypsin release of AMC from lysyl-AMC compounds; settings: 1 μM compound, trypsin 2 mg/ml, room temperature
# T3 construct: purchased ENZO Life Sciences BML-KI105 or BML-KI176; host or cells: bovine pancreas
# T3 sequence (P00760 24-246): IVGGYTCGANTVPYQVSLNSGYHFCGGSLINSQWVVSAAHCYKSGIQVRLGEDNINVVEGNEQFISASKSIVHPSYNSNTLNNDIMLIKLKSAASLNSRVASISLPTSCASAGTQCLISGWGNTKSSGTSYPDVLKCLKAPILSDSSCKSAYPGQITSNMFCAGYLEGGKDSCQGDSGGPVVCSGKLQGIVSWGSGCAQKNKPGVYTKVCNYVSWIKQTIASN
# Description: FIG. 2 is a graph showing that trypsin treatment releases fluorescent AMC from Ac-Lys-AMC but not Ac-Lys(Succinyl)-AMC. Samples (100 μl) of 1 μM Ac-Lys-AMC and 1 μM Ac-Lys(Succinyl)-AMC in a buffered solution (50 mM Tris/HCl, pH 8.0, 137 mM NaCl, 2.7 mM KCl, 1 mM MgCl2) were treated with bovine pancreatic trypsin (2 mg/ml) for the indicated times at room temperature. Samples were in the wells of a 96-well, ½-area white microplate and fluorescence was measured at 1 min. intervals at the excitation and emission wavelengths for free AMC (Excitation: 360 nm; Emission: 460 nm) in a Synergy 2 microplate reading fluorimeter (BioTek), Gain 40. The data points at 0 min. represent the fluorescence of equivalent 1 μM Ac-Lys(Succ.)-AMC and 1 μM Ac-Lys-AMC samples in the absence of trypsin.
# As noted in the Background of the Invention section above, the protease trypsin catalyzes the hydrolytic cleavage of amide bonds on the carboxyl side of unmodified lysine residues. Hydrolytic cleavage of lysyl amide bonds with AMC or rhodamine 110 (dye components of Compounds 1 and 2, respectively) releases the free amino forms of the dyes. This elicits an upward shift of the dye's fluorescence emission peak wavelength (bathochromic shift), for example to 460 nm for AMC or 530 nm for rhodamine 110. If succinylation of the ε-amino function of the lysine moieties in compounds such as 1 and 2 renders the amide bond between the carbonyl of lysine and the amino of dye groups such as AMC or rhodamine resistant to trypsin cleavage then, upon desuccinylation, the lysine/dye amide bond would become cleavable by trypsin. Note that removal of a single succinyl group from 2, followed by cleavage of the desuccinylated lysine would yield a compound with a single free amino function, Ac-K(Succ.)-R110. Monoamides of rhodamine 110 also have increased fluorescence emission at 530 nm relative to 2, although they are less fluorescent than rhodamine 110 itself (Liu et al., 1999). Thus, monitoring the fluorescence at the peak wavelength of the amino form of the dye would allow the desuccinylation reaction to be quantified. A schematic for such an assay is depicted for Compound 1 and SIRT5 in FIG. 1. Trypsin treatment (2 mg/ml) elicits an immediate increase in the fluorescence of a solution of Ac-Lys-AMC (Compound 6—FIG. 1) at the excitation and emission wavelengths of free AMC (Ex. 360 nm; Em. 460 nm), with maximum fluorescence achieved in 2 min. or less and ˜⅔ of that maximum occurring in 1 min. (FIG. 2).
# SIRT5 [3] = target: T2, SIRT5; test: Inhibition of SIRT5 desuccinylation of Ac-Lys(Succ.)-AMC; set-up: purchased Enzo Life Sciences BML-SE555; settings: three parameter Hill-Slope model, bottom fixed at 0
# Text: Signal development (trypsin treatment) and fluorescence readings were done as described, as were the conversion of fluorescence increases to rates in units of pmol/min/μg (FIG. 5). Data points represent the mean of three determinations and the error bars are the standard deviations from those means. The dose-response curve was derived from a least-squares fit to a three parameter Hill-Slope model (bottom fixed at 0 pmol/min/μg), y=top/(1+(x/IC50)^slope).
# Data points represent the mean of three determinations and the error bars are the standard deviations from those means. The dose-response curve was derived from a least-squares fit to a three parameter Hill-Slope model (bottom fixed at 0 pmol/min/μg), y=top/(1+(x/IC50)^slope).
# as §1
# T1 sequence (Q92769 whole entry): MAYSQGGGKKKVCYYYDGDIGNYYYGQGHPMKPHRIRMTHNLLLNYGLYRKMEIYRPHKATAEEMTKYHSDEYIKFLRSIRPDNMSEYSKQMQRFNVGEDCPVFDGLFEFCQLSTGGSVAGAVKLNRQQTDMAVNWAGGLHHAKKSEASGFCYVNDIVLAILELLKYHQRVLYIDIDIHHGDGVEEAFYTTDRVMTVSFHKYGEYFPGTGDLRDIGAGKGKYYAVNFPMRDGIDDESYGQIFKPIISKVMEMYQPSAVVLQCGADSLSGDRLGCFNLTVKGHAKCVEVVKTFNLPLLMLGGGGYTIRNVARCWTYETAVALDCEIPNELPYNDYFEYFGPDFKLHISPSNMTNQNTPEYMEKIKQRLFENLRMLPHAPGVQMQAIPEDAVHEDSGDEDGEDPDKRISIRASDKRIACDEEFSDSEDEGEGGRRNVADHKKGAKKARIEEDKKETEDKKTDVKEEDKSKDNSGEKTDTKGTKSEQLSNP
structure (smiles),measurement,setting,value
"CC(=O)NCCCCC(NC(C)=O)C(=O)Nc1ccc2c(c1)Oc1cc(NC(=O)C(CCCCNC(C)=O)NC(C)=O)ccc1C21OC(=O)c2ccccc21 (stereo not shown) [(Ac-Lys(Ac))2-R110, reference compound]",Activity (pmol/min/μg),HDAC2,(Ac-Lys(Ac))2-R110/502 pmol/min/μg
"CC(=O)NC(CCCCNC(=O)CCC(=O)O)C(=O)Nc1ccc2c(c1)Oc1cc(NC(=O)C(CCCCNC(=O)CCC(=O)O)NC(C)=O)ccc1C21OC(=O)c2ccccc21 (stereo not drawn) [Compound 2, N,N′-Bis(α-acetyl-Lysine(ε-succinyl))-rhodamine 110]",SIRT5/NAD^+ dependence of desuccinylation,"SIRT5 [1]; 5 μg SIRT5, 50 μM substrate, 500 μM NAD^+, 60 min.",desuccinylated by SIRT5 in a time and NAD^+-dependent manner
"CC(=O)N[C@@H](CCCCN)C(=O)Nc1ccc2c(C)cc(=O)oc2c1 [Compound 6, N-(α-acetyl-Lysine)-AMC, reference compound]",Fraction of maximum fluorescence at 1 min.,[2],⅔
same,Time to maximum fluorescence on trypsin treatment,[2],≤ 2 min
NC(=O)c1ccc[n+]([C@@H]2O[C@H](COP(=O)([O-])OP(=O)(O)OC[C@H]3O[C@@H](n4cnc5c(N)ncnc54)[C@H](O)[C@@H]3O)[C@@H](O)[C@H]2O)c1 [NAD^+],Km,"SIRT5 [1]; varied substrate: NAD^+, constant 0.5 mM Ac-Lys(Succ.)-AMC",360 µM
NC(=O)c1cccnc1 [nicotinamide],slope (fitted parameter of dose-response curve),SIRT5 [3],0.98
same,top (fitted parameter of dose-response curve),SIRT5 [3],90.2 pmol/min/µg
